Results as given in article PMC4597882 (Investigational new drugs, 2009).

Target: human TopoII (TopoIIα) (Homo sapiens, UniProt P11388)
Assay: kinetoplast DNA decatenation assay
Type: biochemical

Chain of human TopoII (TopoIIα) (P11388 whole entry): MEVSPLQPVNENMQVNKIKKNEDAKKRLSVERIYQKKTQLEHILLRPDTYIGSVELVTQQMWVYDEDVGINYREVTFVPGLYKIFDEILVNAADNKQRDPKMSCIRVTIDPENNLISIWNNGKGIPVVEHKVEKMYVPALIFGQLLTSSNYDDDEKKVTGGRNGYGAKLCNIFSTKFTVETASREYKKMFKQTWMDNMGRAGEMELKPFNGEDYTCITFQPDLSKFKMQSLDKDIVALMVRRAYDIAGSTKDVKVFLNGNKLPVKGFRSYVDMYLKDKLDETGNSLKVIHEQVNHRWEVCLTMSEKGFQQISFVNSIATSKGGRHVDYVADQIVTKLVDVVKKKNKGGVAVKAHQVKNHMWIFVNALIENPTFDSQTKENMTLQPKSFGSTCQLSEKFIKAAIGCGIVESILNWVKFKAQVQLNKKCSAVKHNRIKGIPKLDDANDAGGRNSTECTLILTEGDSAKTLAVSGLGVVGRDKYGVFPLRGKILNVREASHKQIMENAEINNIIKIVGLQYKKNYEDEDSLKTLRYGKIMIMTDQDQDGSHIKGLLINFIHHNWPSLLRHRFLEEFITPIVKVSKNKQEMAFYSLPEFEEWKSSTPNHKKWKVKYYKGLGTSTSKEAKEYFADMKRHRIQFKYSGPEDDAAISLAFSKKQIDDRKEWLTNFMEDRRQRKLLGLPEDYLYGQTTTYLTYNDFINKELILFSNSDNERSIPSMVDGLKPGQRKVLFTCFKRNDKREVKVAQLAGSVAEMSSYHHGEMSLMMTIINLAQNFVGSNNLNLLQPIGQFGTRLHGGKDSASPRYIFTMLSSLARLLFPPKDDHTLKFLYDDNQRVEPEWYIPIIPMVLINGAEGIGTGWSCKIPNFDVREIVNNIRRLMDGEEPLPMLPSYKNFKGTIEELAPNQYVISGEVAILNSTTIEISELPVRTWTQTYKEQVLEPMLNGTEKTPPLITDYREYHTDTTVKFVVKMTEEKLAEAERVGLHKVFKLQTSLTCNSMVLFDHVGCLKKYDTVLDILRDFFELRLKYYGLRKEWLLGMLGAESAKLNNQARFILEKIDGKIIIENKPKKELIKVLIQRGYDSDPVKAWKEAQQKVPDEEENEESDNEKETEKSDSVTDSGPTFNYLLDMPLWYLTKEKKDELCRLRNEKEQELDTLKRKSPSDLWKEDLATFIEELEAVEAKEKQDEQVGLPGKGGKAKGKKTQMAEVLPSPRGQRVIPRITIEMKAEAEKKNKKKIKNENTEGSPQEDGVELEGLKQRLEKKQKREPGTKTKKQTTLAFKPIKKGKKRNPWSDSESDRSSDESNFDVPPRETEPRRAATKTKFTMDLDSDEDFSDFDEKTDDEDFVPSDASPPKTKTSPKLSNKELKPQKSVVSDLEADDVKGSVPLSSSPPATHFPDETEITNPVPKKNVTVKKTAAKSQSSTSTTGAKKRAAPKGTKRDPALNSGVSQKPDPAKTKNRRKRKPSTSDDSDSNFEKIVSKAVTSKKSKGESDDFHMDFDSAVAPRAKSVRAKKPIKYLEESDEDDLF

## CC(=O)O[C@@H]1[C@@H](C)O[C@@H](c2ccc3c(c2O)[C@@H](O)[C@]24O[C@@]2(C3=O)[C@@]2(O)C(=O)C=C(C)C[C@@]2(O)C[C@@H]4O)C[C@H]1OC(=O)/C=C/C=C/C=C/C=C/C(=O)Nc1c(O)c2ccc(O)c(Cl)c2oc1=O [SD8, Simocyclinone D8]
  IC50: ~80 µM
